According to patent US9618513B2, “Compositions and methods for detecting and treating colorectal cancer” (The Regents of the University of Michigan, priority 2014, dated 2017):
Entries after “also recorded” stand apart in the source; their conditions may differ.

Legend:
DLD-1 colon cancer cells = assay: In vivo tumor formation of DLD-1 cells in NSG mice; design: species or system NOD/Shi-scid/IL-2Rγnull (NSG) mice
From the text: (A), IL-22 is expressed in colon cancer tissues. IL-22 mRNA was detected by real-time PCR in colon cancer tissues and peripheral blood. *P<0.05 compared to blood, 20 colon cancer patients. (B-D), Endogenous IL-22 promotes colon carcinogenesis. Single cells (10^7) isolated from colon cancer tissue were mixed with anti-IL-22 antibody or control mAb, and then subcutaneously injected to NSG mice. Tumor growth (B), incidence (C), and animal survival (D) are shown. (P<0.05 for all, n=5 per group). (E-G) Recombinant IL-22 promotes colon carcinogenesis. DLD-1 colon cancer cells (10^5) were pre-incubated with IL-22 (20 ng/ml) for 1 hour, and then subcutaneously injected to NSG mice. Tumor growth (E), incidence (F), and animal survival (G) are shown. (P<0.05 for all, n=5 per group). (H, I) IL-22 enhances colon cancer sphere formation. DLD-1 colon cancer cells were pre-incubated for 24 hours with IL-22. Sphere assay was performed with 2,000 cells. Representative image of spheres (H) and the mean numbers of spheres (I) are shown. *P<0.05, n=5. (J) IL-22 increases ALDH1 activity in colon cancer cells. Colon cancer cell lines (DLD-1 and HT29) and two primary colon cancer cells (1, 2) were cultured with IL-22 for 24 hours. ALDH activity was determined by FACS based on aldefluor fluorescence. Cells treated with DEAB inhibitor were negative controls. Results are expressed as fold changes of ALDH expression. (P<0.05 for all, n=3 repeats per group). (K-M) IL-22 stimulates core stem cell gene expression in colon cancer cells. DLD-1 colon cancer cells were cultured with IL-22 (20 ng/ml). The mRNA of stem cell core gene was detected by real-time PCR (K) and proteins were detected by western blotting (L, M). (*P<0.05, n=5).
IL-22 treated 10^6 DLD-1 cells were inoculated into NSG mice. Tumor incidence (A) and tumor growth (B) were recorded. n=5 per group, P<0.05.
To confirm the tumorigenic potential of endogenous IL-22, different concentrations of a colorectal adenocarcinoma cancer cell line, DLD-1 cells, were injected into the NSG mice to determine a nontumorigenic concentration. […] However, exogenous IL-22 administration enabled tumor formation with 10^5DLD-1 cells as shown by increased tumor volume (FIG. 1E) and incidence (FIG. 1F) and decreased mouse survival (FIG. 1G). When 10^6 DLD-1 cells were inoculated into mice, IL-22 accelerated tumor development (FIG. 13A) and growth as well (FIG. 13B). Thus, IL-22 may enhance tumorigenesis by altering cancer stem cell properties.
Colon cancer cells (10^2-5×10^6) in 100 μl of buffered saline were subcutaneously injected into dorsal tissues of female NOD/Shi-scid/IL-2Rγnull (NSG) mice (6-8 weeks old, Jackson Lab, Bar Harbor, Me.) (see, e.g., Curiel, T. J. et al. (2004) Nat Med 10, 942-949; Curiel, T. J. et al. (2003) Nat Med 9, 562-567; Kryczek, I. et al. (2012) Int J Cancer 130, 29-39). Tumor size was measured two times weekly using calipers fitted with a Vernier scale. Tumor volume was calculated based on three perpendicular measurements (see, e.g., Curiel, T. J. et al. (2004) Nat Med 10, 942-949; Curiel, T. J. et al. (2003) Nat Med 9, 562-567). Tumor incidence was monitored.

STAT3 = assay: STAT phosphorylation by western blotting; assay type: cell-based, human; conditions: colon cancer cells treated with IL-22
Experimental: (A) IL-22 induced STAT3 phosphorylation. Colon cancer cells were treated with IL-22 for different time points. The protein levels of phosphorylated STAT3 and STAT3 were detected by Western blotting. (B, C) IL-22 induced colon cancer spheres via STAT3. Sphere assay was performed with shSTAT3 colon cancer cells in the presence of IL-22. Results were shown as sphere images (b) and the mean numbers of spheres in triplicate (c). (n=5. P<0.01). (D-F) IL-22 stimulated colon cancer sternness gene expression via STAT3. Colon cancer cells expressing shSTAT3 or scrambled vector were cultured with IL-22. Stem cell core gene mRNAs were detected by real-time PCR after 6 hours (n=5, *P<0.05). (G, H) IL-22 causes STAT3 occupancy on SOX2 promoter areas. STAT3-ChIP assay was performed in DLD-1 cells cultured with or without IL-22. One of at least three experiments is shown.
A. The protein level of phosphorylated STAT3, STAT1 and STATS were activated by IL-22. B. The effect of STAT3 knock down. C. The effect of IL-22 on cell proliferation was analyzed using H^3 Thymidine Incorporation in Stat3 knock down cells. D. Knock down of STAT3 reduced the expression of EZH2 and SUZ12. E. Based on the ENCODE STAT3-ChIP-Seq data base, STAT3 occupancy on the promoter areas of SUZ12 and EED is shown. F. SUZ12/EED DNA was detected by ChIP assay using an antibody against STAT3, c-fos was used as a positive control. […]

[1] = 10^5 DLD-1 cells pre-incubated with IL-22 (20 ng/ml) 1 hour

Substance: IL-22: recombinant IL-22 (R&D systems), cytokine interleukin-22
- mouse survival (DLD-1 colon cancer cells; [1]): decreased
- tumor incidence (DLD-1 colon cancer cells; [1]): increased
- tumor volume (DLD-1 colon cancer cells; [1]): increased
- tumor development (incidence) (DLD-1 colon cancer cells; 10^6 IL-22 treated DLD-1 cells): accelerated
- tumor growth (DLD-1 colon cancer cells; 10^6 IL-22 treated DLD-1 cells): accelerated
- STAT3 activation (phosphorylation) (STAT3): activated; also recorded: activated STAT3 strongly
